Values quoted from earlier work, collected in patent US11590077B2, “Fulvestrant formulations and methods of their use” (EAGLE PHARMACEUTICALS, INC., priority 2017, dated 2023).

Details: background statement

aqueous solubility: extremely low
Compound: C[C@]12CC[C@@H]3c4ccc(O)cc4C[C@@H](CCCCCCCCC[S+]([O-])CCCC(F)(F)C(F)(F)F)[C@H]3[C@@H]1CC[C@@H]2O (stereo partly shown) [Fulvestrant, 7-(9-(4,4,5,5,5-pentafluoropentylsulfinyl)nonyl) estra-1,3,5(10)-triene-3,17-diol]
